Source: US20070128217A1 (priority 2003, published 2007)

How the values were obtained:
[1] = tested on: rabbit serum obtained by immunizing a rabbit with the SARS-CoV strain Frankfurt 1; assay type: binding; design: Binding of a rabbit serum to linear peptides / Binding of a rabbit serum to looped peptides / Rabbit serum linear peptides / Rabbit serum looped peptides / Binding of a rabbit serum to linear peptides of protein N of SARS-CoV Urbani (Rabbit serum linear peptides) / Binding of a rabbit serum to looped/cyclic peptides of protein N of SARS-CoV Urbani (Rabbit serum looped peptides): unit not given here
[2] = tested on: control sera (pooled serum of ten healthy LUMC hospital workers; commercial negative donor pooled serum from the Dutch bloodbank); assay type: binding, human; design: Binding of Control serum LUMC to linear peptides / Binding of Control serum Blood-bank to linear peptides / Binding of Control serum LUMC to looped peptides / Binding of Control Serum Blood-Bank to Looped peptides / Binding of Control serum LUMC to linear peptides of the protein M of SARS-CoV Urbani / Binding of Control serum Blood-bank to linear peptides of the protein M of SARS-CoV Urbani / Binding of Control serum LUMC to looped peptides of the protein M of SARS-CoV Urbani / Binding of Control Serum Blood-Bank to Looped peptides of the protein M of SARS-CoV Urbani: unit not given here
[3] = tested on: antibodies in sera from SARS patients (sera 1a, 1b, 2, 6, 37, 62, London, SARS-yellow, SARS-green); assay type: binding, human; design: Binding of serum 6 to linear peptides of protein X1 of SARS-CoV Urbani / Binding of serum 37 to linear peptides of protein X1 of SARS-CoV Urbani / Binding of serum 6 to looped/cyclic peptide (PEPSCAN-ELISA) / Binding of serum 37 to looped/cyclic peptide (PEPSCAN-ELISA) / Binding of serum 37 to looped/cyclic peptides of protein X1 of SARS-CoV Urbani / Binding of serum 6 to linear peptides of protein X2 / Binding of serum 37 to linear peptides of protein X2 / Binding of serum 37 to looped/cyclic peptides of protein X2 of SARS-CoV Urbani / Binding of serum 6 to linear peptides of protein M of SARS-CoV Urbani / Binding of serum 37 to linear peptides of protein M of SARS-CoV Urbani / Binding of serum 6 to looped/cyclic peptides of protein M of SARS-CoV Urbani / Binding of serum 37 to looped/cyclic peptides of protein M of SARS-CoV Urbani / Binding of serum 6 to linear peptides of protein X3 of SARS-CoV Urbani / Binding of serum 37 to linear peptides of protein X3 of SARS-CoV Urbani / Binding of serum 37 to looped/cyclic peptides of protein X3 of SARS-CoV Urbani / Binding of serum 6 to linear peptides of protein X4 of SARS-CoV Urbani / Binding of serum 37 to linear peptides of protein X4 of SARS-CoV Urbani / Binding of serum 37 to looped/cyclic peptides of protein X4 of SARS-CoV Urbani / Binding of serum 6 to linear peptides of protein X5 of SARS-CoV Urbani / Binding of serum 37 to linear peptides of protein X5 of SARS-CoV Urbani / Binding of serum 37 to looped/cyclic peptides of protein X5 of SARS-CoV Urbani / Binding of serum 6 to linear peptides of protein N of SARS-CoV Urbani / Binding of serum 37 to linear peptides of protein N of SARS-CoV Urbani / Binding of serum 6 to linear peptide (PEPSCAN-ELISA) / Binding of serum 1a to looped/cyclic peptides of protein N of SARS-CoV Urbani / Binding of serum 1b to looped/cyclic peptides of protein N of SARS-CoV Urbani / Binding of serum 2 to looped/cyclic peptides of protein N of SARS-CoV Urbani / Binding of serum 6 to looped/cyclic peptides of protein N of SARS-CoV Urbani / Binding of serum 37 to looped/cyclic peptides of protein N of SARS-CoV Urbani / Binding of serum 62 to looped/cyclic peptides of protein N of SARS-CoV Urbani / Binding of serum London to looped/cyclic peptides of protein N of SARS-CoV Urbani / Binding of serum SARS-green to looped/cyclic peptides of protein N of SARS-CoV Urbani: unit not given here

VATSRTLSYYKLGAS
Rabbit serum linear peptides [1]: 0.3
Rabbit serum looped peptides [1]: 0.7
Binding of Control Serum Blood-Bank to Looped peptides of the protein M of SARS-CoV Urbani [2]: 0.5
Binding of Control serum Blood-bank to linear peptides of the protein M of SARS-CoV Urbani [2]: 0.8
Binding of Control serum LUMC to linear peptides of the protein M of SARS-CoV Urbani [2]: 0.6
Binding of Control serum LUMC to looped peptides of the protein M of SARS-CoV Urbani [2]: 0.6
Binding of serum 1a to linear peptides of protein M of SARS-CoV Urbani [3]: 0.6
Binding of serum 1a to looped/cyclic peptides of protein M of SARS-CoV Urbani [3]: 0.8
Binding of serum 1b to linear peptides of protein M of SARS-CoV Urbani [3]: 0.5
Binding of serum 1b to looped/cyclic peptides of protein M of SARS-CoV Urbani [3]: 0.6
Binding of serum 2 to linear peptides of protein M of SARS-CoV Urbani [3]: 0.6
Binding of serum 2 to looped/cyclic peptides of protein M of SARS-CoV Urbani [3]: 0.7
Binding of serum 6 to linear peptides of protein M of SARS-CoV Urbani [3]: 0.8
Binding of serum 6 to looped/cyclic peptides of protein M of SARS-CoV Urbani [3]: 0.6
Binding of serum 37 to linear peptides of protein M of SARS-CoV Urbani [3]: 0.5
Binding of serum 37 to looped/cyclic peptides of protein M of SARS-CoV Urbani [3]: 0.7
Binding of serum 62 to linear peptides of protein M of SARS-CoV Urbani [3]: 0.5
Binding of serum 62 to looped/cyclic peptides of protein M of SARS-CoV Urbani [3]: 0.6
Binding of serum London to linear peptides of protein M of SARS-CoV Urbani [3]: 0.3
Binding of serum London to looped/cyclic peptides of protein M of SARS-CoV Urbani [3]: 0.2
Binding of serum SARS-green to linear peptides of protein M of SARS-CoV Urbani [3]: 0.4
Binding of serum SARS-green to looped/cyclic peptides of protein M of SARS-CoV Urbani [3]: 0.3
Binding of serum SARS-yellow to linear peptides of protein M of SARS-CoV Urbani [3]: 0.3
Binding of serum SARS-yellow to looped/cyclic peptides of protein M of SARS-CoV Urbani [3]: 0.6

VFTSCELYHYQECVR
Rabbit serum linear peptides [1]: 0.5
Rabbit serum looped peptides [1]: 0.5
Binding of Control Serum Blood-Bank to Looped peptides [2]: 0.7
Binding of Control serum Blood-bank to linear peptides [2]: 0.7
Binding of Control serum LUMC to linear peptides [2]: 0.5
Binding of Control serum LUMC to looped peptides [2]: 0.9
Binding of serum 1a to linear peptides of protein X4 of SARS-CoV Urbani [3]: 0.8
Binding of serum 1a to looped/cyclic peptides of protein X4 of SARS-CoV Urbani [3]: 0.8
Binding of serum 1b to linear peptides of protein X4 of SARS-CoV Urbani [3]: 0.6
Binding of serum 1b to looped/cyclic peptides of protein X4 of SARS-CoV Urbani [3]: 0.7
Binding of serum 2 to linear peptides of protein X4 of SARS-CoV Urbani [3]: 0.4
Binding of serum 2 to looped/cyclic peptides of protein X4 of SARS-CoV Urbani [3]: 0.7
Binding of serum 6 to linear peptides of protein X4 of SARS-CoV Urbani [3]: 0.7
Binding of serum 6 to looped/cyclic peptides of protein X4 of SARS-CoV Urbani [3]: 0.7
Binding of serum 37 to linear peptides of protein X4 of SARS-CoV Urbani [3]: 0.8
Binding of serum 37 to looped/cyclic peptides of protein X4 of SARS-CoV Urbani [3]: 0.8
Binding of serum 62 to linear peptides of protein X4 of SARS-CoV Urbani [3]: 0.8
Binding of serum 62 to looped/cyclic peptides of protein X4 of SARS-CoV Urbani [3]: 0.7
Binding of serum London to linear peptides of protein X4 of SARS-CoV Urbani [3]: 0.7
Binding of serum London to looped/cyclic peptides of protein X4 of SARS-CoV Urbani [3]: 0.3
Binding of serum SARS-green to linear peptides of protein X4 of SARS-CoV Urbani [3]: 0.7
Binding of serum SARS-green to looped/cyclic peptides of protein X4 of SARS-CoV Urbani [3]: 0.7
Binding of serum SARS-yellow to linear peptides of protein X4 of SARS-CoV Urbani [3]: 0.3
Binding of serum SARS-yellow to looped/cyclic peptides of protein X4 of SARS-CoV Urbani [3]: 0.5

VGLMWLSYFVASFRL
Rabbit serum linear peptides [1]: 0.0
Rabbit serum looped peptides [1]: 0.4
Binding of Control Serum Blood-Bank to Looped peptides of the protein M of SARS-CoV Urbani [2]: 0.6
Binding of Control serum Blood-bank to linear peptides of the protein M of SARS-CoV Urbani [2]: 0.6
Binding of Control serum LUMC to linear peptides of the protein M of SARS-CoV Urbani [2]: 0.5
Binding of Control serum LUMC to looped peptides of the protein M of SARS-CoV Urbani [2]: 0.6
Binding of serum 1a to linear peptides of protein M of SARS-CoV Urbani [3]: 0.6
Binding of serum 1a to looped/cyclic peptides of protein M of SARS-CoV Urbani [3]: 0.6
Binding of serum 1b to linear peptides of protein M of SARS-CoV Urbani [3]: 0.5
Binding of serum 1b to looped/cyclic peptides of protein M of SARS-CoV Urbani [3]: 0.3
Binding of serum 2 to linear peptides of protein M of SARS-CoV Urbani [3]: 0.4
Binding of serum 2 to looped/cyclic peptides of protein M of SARS-CoV Urbani [3]: 0.5
Binding of serum 6 to linear peptides of protein M of SARS-CoV Urbani [3]: 0.5
Binding of serum 6 to looped/cyclic peptides of protein M of SARS-CoV Urbani [3]: 0.5
Binding of serum 37 to linear peptides of protein M of SARS-CoV Urbani [3]: 0.4
Binding of serum 37 to looped/cyclic peptides of protein M of SARS-CoV Urbani [3]: 0.6
Binding of serum 62 to linear peptides of protein M of SARS-CoV Urbani [3]: 0.4
Binding of serum 62 to looped/cyclic peptides of protein M of SARS-CoV Urbani [3]: 0.5
Binding of serum London to linear peptides of protein M of SARS-CoV Urbani [3]: 0.5
Binding of serum London to looped/cyclic peptides of protein M of SARS-CoV Urbani [3]: 0.2
Binding of serum SARS-green to linear peptides of protein M of SARS-CoV Urbani [3]: 0.4
Binding of serum SARS-green to looped/cyclic peptides of protein M of SARS-CoV Urbani [3]: 0.2
Binding of serum SARS-yellow to linear peptides of protein M of SARS-CoV Urbani [3]: 0.1
Binding of serum SARS-yellow to looped/cyclic peptides of protein M of SARS-CoV Urbani [3]: 0.8

VGTDSGFAAYNRYRI
Rabbit serum linear peptides [1]: 0.4
Rabbit serum looped peptides [1]: 0.0
Binding of Control Serum Blood-Bank to Looped peptides of the protein M of SARS-CoV Urbani [2]: 0.5
Binding of Control serum Blood-bank to linear peptides of the protein M of SARS-CoV Urbani [2]: 0.7
Binding of Control serum LUMC to linear peptides of the protein M of SARS-CoV Urbani [2]: 0.3
Binding of Control serum LUMC to looped peptides of the protein M of SARS-CoV Urbani [2]: 0.6
Binding of serum 1a to linear peptides of protein M of SARS-CoV Urbani [3]: 0.8
Binding of serum 1a to looped/cyclic peptides of protein M of SARS-CoV Urbani [3]: 0.7
Binding of serum 1b to linear peptides of protein M of SARS-CoV Urbani [3]: 0.4
Binding of serum 1b to looped/cyclic peptides of protein M of SARS-CoV Urbani [3]: 0.4
Binding of serum 2 to linear peptides of protein M of SARS-CoV Urbani [3]: 0.4
Binding of serum 2 to looped/cyclic peptides of protein M of SARS-CoV Urbani [3]: 0.7
Binding of serum 6 to linear peptides of protein M of SARS-CoV Urbani [3]: 0.3
Binding of serum 6 to looped/cyclic peptides of protein M of SARS-CoV Urbani [3]: 0.6
Binding of serum 37 to linear peptides of protein M of SARS-CoV Urbani [3]: 0.6
Binding of serum 37 to looped/cyclic peptides of protein M of SARS-CoV Urbani [3]: 0.7
Binding of serum 62 to linear peptides of protein M of SARS-CoV Urbani [3]: 0.7
Binding of serum 62 to looped/cyclic peptides of protein M of SARS-CoV Urbani [3]: 0.8
Binding of serum London to linear peptides of protein M of SARS-CoV Urbani [3]: 0.3
Binding of serum London to looped/cyclic peptides of protein M of SARS-CoV Urbani [3]: 0.2
Binding of serum SARS-green to linear peptides of protein M of SARS-CoV Urbani [3]: 0.3
Binding of serum SARS-green to looped/cyclic peptides of protein M of SARS-CoV Urbani [3]: 0.4
Binding of serum SARS-yellow to linear peptides of protein M of SARS-CoV Urbani [3]: 0.1
Binding of serum SARS-yellow to looped/cyclic peptides of protein M of SARS-CoV Urbani [3]: 0.5
